What was measured:
[1] = system: HLR (HeLa Luciferase Reporter)-Elk-1 cells; experiment: MAPK signaling reporter assay (Elk-1 luciferase, EGF-stimulated); format: cell-based; conditions: Homo sapiens, 5 h, HLR-Elk-1 cells, EGF 10 ng/ml stimulation, luciferase after five hours
Procedure: The present example describes assays for assessing MAPK pathway signaling modulation mediated by the compounds and compositions described herein. Specifically, compounds of the invention have been assessed in an ELK-1 luciferase reporter assay in HeLa cells to obtain an IC50 measurement as well as to assess their anti-proliferative capacity. Following 72 hours of serum starvation, HLR (HeLa Luciferase Reporter)-Elk-1 cells (30,000 cells per well) were incubated for one hour in the presence or absence of various concentration of inhibitors prior to stimulation of Elk1 release by EGF addition (10 ng/ml). The amount of Elk1 release was measured after five hours using Bright-Glo Luciferase assay (Promega Co., Madison, Wis.).

HCT-116 cells = experiment: Proliferation assay (WST-1); format: cell-based; conditions: Homo sapiens, HCT-116, 48 hours
Procedure: Five thousand HCT-116 cells were seeded into each well of a 96 well flat bottom plate and incubated over night at 37° C. in 5% CO2. The growth of plated cells was measured by adding […] WST-1 reagent (Roche Applied Sciences, Germany) to three control wells and measuring OD650 and OD450 absorbances with a SpectraMax250 plate reader. If the OD650-OD450 values were above 0.5, the remainder of the plate was used for incubation with compounds or solvent control for 48 hours. After this incubation, WST-1 reagent was added to the wells and OD650-OD450 values were calculated as before. Triplicate wells were assayed for each condition and standard deviation was determined; all experiments were performed at least three times independently.

| SMILES | IC50 [1] | GI50 (HCT-116 cells) | inhibition at 60 µM (HCT-116 cells) |
| --- | --- | --- | --- |
| COc1cc(C2(OC)c3ccccc3C(=O)N2CCc2ccccn2)ccc1OCc1ccccc1 (stereo not drawn) [Compound 7, 3-(4-Benzyloxy-3-methoxy-phenyl)-3-methoxy-2-(2-pyridin-2-yl-ethyl)-2,3-dihydro-isoindol-1-one] | 22.2 ± 6.8 µM | 22.2 ± 5.3 µM | – |
| COc1cc(C2c3ccccc3C(=O)N2CCc2ccccn2)ccc1OCc1ccccc1 (stereo not drawn) [Compound 8, 3-(4-Benzyloxy-3-methoxy-phenyl)-2-(2-pyridin-2-yl-ethyl)-2,3-dihydro-isoindol-1-one] | 31.8 ± 6.1 µM | – | 21% |
| COc1cc(CN2C(=O)c3ccccc3C2Cc2ccccn2)ccc1OCc1ccccc1 (stereo not drawn) [Compound 11, 2-(4-benzyloxy-3-methoxy-benzyl)-3-(2-pyridin-2-yl-methyl)-2,3-dihydro-isoindol-1-one] | 43 ± 6.9 µM | – | 26% |

Source: patent US7705021B2, “Isoindolone compounds, compositions containing the same, and methods of use thereof for the treatment of viral infections related to the etiology of cancer” (Fox Chase Cancer Center, priority 2005, dated 2010)
